# Results: US20240366809A1, “INHIBITOR OF PROSTATE SPECIFIC MEMBRANE ANTIGEN AND PHARMACEUTICAL USE THEREOF” (TIANJIN HENGRUI MEDICINE CO., LTD., priority 2021, published 2024)
# “And” between values parts separate entries of the source, which are not always exact repeats. Equal entries are not always repeated.
# Legend:
# [1] = Pharmacokinetics in blood of normal mice after single tail-vein injection; format: in vivo; details: for Blood % ID/g: normal mice, individual animals 1-4
# Description: Through single tail-vein injections into mice, the pharmacokinetics of ^68Ga-v (Example 9) and PSMA-617 in blood was studied.
# Each mouse was dosed at 50 μCi/100 μL, and blood samples were taken from the orbit 0.083, 0.25, 0.5, 1, 2, and 4 h post-dose (4 animals per time point). The blood samples were collected in pre-weighed sample tubes. The tubes were weighed and the weight of the blood samples was recorded. Then radioactivity counting was performed using a γ-counter. Meanwhile, a test sample was accurately diluted 100-fold, and 0.1 mL of the dilution was added to a counting tube and used as standard 1% ID (i.e., one percent of the injected dose). The radioactivity counts of the 1% ID standard and the biological samples were measured simultaneously on a γ-counter. The data on blood were expressed as the percentage of the radioactivity counts per gram of blood to the total injected dose (radioactivity counts) (% ID/g). Pharmacokinetic parameters were calculated from blood drug concentration data.
# [2] = test system: human organs; assay: Absorbed doses of radiation, estimates for human organs (OLINDA software)
# Description: The AUC of drug metabolisms was calculated from the biodistribution (Bio-D) data and imported into the OLINDA software to generate doses of radiation absorbed by all the organs.
compound,measurement,setting,value
"O=C([O-])CN1CCN(CC(=O)[O-])CCN(CC(=O)NCC2CCC(C(=O)N[C@@H](Cc3ccc4ccccc4c3)C(=O)NCCCC[C@H](NC(=O)N[C@@H](CCC(=O)O)C(=O)O)C(=O)O)CC2)CCN(CC(=O)[O-])CC1.[68Ga+3] (some centres unmarked) [^68Ga-PSMA-617, reference compound]",Blood % ID/g,[1]; 0.083 h post-dose,4.22 % ID/g (2×) and 4.29 % ID/g and 3.66 % ID/g
same,content of the radioactive substance in the blood,"[1]; 0.25 h after the injections, mean of n=4",2.27±0.44 % ID/g
same,Blood % ID/g,[1]; 0.25 h post-dose,2.12 % ID/g and 2.53 % ID/g and 2.71 % ID/g and 1.73 % ID/g
same,Blood % ID/g,[1]; 0.5 h post-dose,0.55 % ID/g (2×) and 0.84 % ID/g and 0.86 % ID/g
same,Blood % ID/g,[1]; 1 h post-dose,0.14 % ID/g and 0.16 % ID/g and 0.10 % ID/g and 0.13 % ID/g
same,Blood % ID/g,[1]; 2 h post-dose,0.04 % ID/g and 0.07 % ID/g and 0.10 % ID/g and 0.13 % ID/g
same,Blood % ID/g,[1]; 4 h post-dose,0.29 % ID/g and 0.10 % ID/g and 0.09 % ID/g
same,half-life in the blood,[1]; blood of normal mice,13.2 min
same,AUCINF_obs,"[1]; blood of normal mice, 0-4 h",1.65 ± 0.13 h* % ID/g
same,AUClast,"[1]; blood of normal mice, 0-4 h",1.66 ± 0.14 h* % ID/g
same,Cl_obs,"[1]; blood of normal mice, 0-4 h",12.10 ± 1.0 μCi/h* % ID/g
same,Cmax,"[1]; blood of normal mice, 0-4 h",4.10 ± 0.29 % ID/g
same,MRTlast,"[1]; blood of normal mice, 0-4 h",19.8 ± 3 min
same,Vz_obs,"[1]; blood of normal mice, 0-4 h",4.06 ± 1.39 μCi/% ID/g
same,t1/2,"[1]; blood of normal mice, 0-4 h",13.2 min and 13.2 ± 1.2 min
same,"radiation dose estimate, Adrenals",[2]; human organ: Adrenals,7.49E−02 mSv/MBq
same,"radiation dose estimate, Brain",[2]; human organ: Brain,7.80E−02 mSv/MBq
same,"radiation dose estimate, Esophagus",[2]; human organ: Esophagus,1.79E−02 mSv/MBq
same,"radiation dose estimate, Eyes",[2]; human organ: Eyes,1.25E−02 mSv/MBq
same,"radiation dose estimate, Gallbladder Wall",[2]; human organ: Gallbladder Wall,3.22E−02 mSv/MBq
same,"radiation dose estimate, Heart Wall",[2]; human organ: Heart Wall,3.93E−02 mSv/MBq
same,"radiation dose estimate, Kidneys",[2]; human organ: Kidneys,5.47E−01 mSv/MBq
same,"radiation dose estimate, Left colon",[2]; human organ: Left colon,1.63E−02 mSv/MBq
same,"radiation dose estimate, Liver",[2]; human organ: Liver,1.75E−01 mSv/MBq
same,"radiation dose estimate, Lungs",[2]; human organ: Lungs,1.21E−01 mSv/MBq
same,"radiation dose estimate, Osteogenic Cells",[2]; human organ: Osteogenic Cells,3.14E−01 mSv/MBq
same,"radiation dose estimate, Pancreas",[2]; human organ: Pancreas,1.86E−02 mSv/MBq
same,"radiation dose estimate, Prostate",[2]; human organ: Prostate,7.73E−03 mSv/MBq
same,"radiation dose estimate, Rectum",[2]; human organ: Rectum,1.83E−01 mSv/MBq
same,"radiation dose estimate, Red Marrow",[2]; human organ: Red Marrow,2.11E−02 mSv/MBq
same,"radiation dose estimate, Right colon",[2]; human organ: Right colon,1.34E−02 mSv/MBq
same,"radiation dose estimate, Salivary Glands",[2]; human organ: Salivary Glands,9.39E−03 mSv/MBq
same,"radiation dose estimate, Small Intestine",[2]; human organ: Small Intestine,1.00E−01 mSv/MBq
same,"radiation dose estimate, Spleen",[2]; human organ: Spleen,1.79E−01 mSv/MBq
same,"radiation dose estimate, Stomach Wall",[2]; human organ: Stomach Wall,1.91E−02 mSv/MBq
same,"radiation dose estimate, Testes",[2]; human organ: Testes,3.69E−03 mSv/MBq
same,"radiation dose estimate, Thymus",[2]; human organ: Thymus,1.16E−02 mSv/MBq
same,"radiation dose estimate, Thyroid",[2]; human organ: Thyroid,1.08E−02 mSv/MBq
same,"radiation dose estimate, Urinary Bladder Wall",[2]; human organ: Urinary Bladder Wall,5.54E−03 mSv/MBq
same,"radiation dose estimate, Effective Dose",[2]; human: Effective Dose,4.68E−02 mSv/MBq
same,"radiation dose estimate, Total Body",[2]; human: Total Body,3.61E−02 mSv/MBq
